Consider 18 compounds from patent US10479784B2, “Substituted pyrazin-2-amines as inhibitors of ATR kinase” (Vertex Pharmaceuticals Incorporated, priority 2008, dated 2019).

By Ki is commonly meant a measure of affinity in units of concentration, obtained from inhibition or displacement.

The target in the assay is full-length ATR (Homo sapiens (Human), UniProt Q13535). Put plainly: ATR Inhibition Assay (radioactive-phosphate incorporation). Type of assay: biochemical. As to conditions: read-out: ATR Ki. In short, it runs like this:
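Ki(app) was derived by non-linear regression of background-corrected initial rates of 33P incorporation into an 800 μM target peptide, read by phosphocellulose filter scintillation counting. Reaction conditions: 5 nM full-length ATR, 10 μM [γ-33P]ATP, pH 7.5 Tris buffer with MgCl2 and DTT, 25 °C, 10-min preincubation, 24 h run.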

SMILES strings stand for the structures. A value given as a limit tells only on which side of the number the result lay.

Sequence of full-length ATR (Q13535 whole entry): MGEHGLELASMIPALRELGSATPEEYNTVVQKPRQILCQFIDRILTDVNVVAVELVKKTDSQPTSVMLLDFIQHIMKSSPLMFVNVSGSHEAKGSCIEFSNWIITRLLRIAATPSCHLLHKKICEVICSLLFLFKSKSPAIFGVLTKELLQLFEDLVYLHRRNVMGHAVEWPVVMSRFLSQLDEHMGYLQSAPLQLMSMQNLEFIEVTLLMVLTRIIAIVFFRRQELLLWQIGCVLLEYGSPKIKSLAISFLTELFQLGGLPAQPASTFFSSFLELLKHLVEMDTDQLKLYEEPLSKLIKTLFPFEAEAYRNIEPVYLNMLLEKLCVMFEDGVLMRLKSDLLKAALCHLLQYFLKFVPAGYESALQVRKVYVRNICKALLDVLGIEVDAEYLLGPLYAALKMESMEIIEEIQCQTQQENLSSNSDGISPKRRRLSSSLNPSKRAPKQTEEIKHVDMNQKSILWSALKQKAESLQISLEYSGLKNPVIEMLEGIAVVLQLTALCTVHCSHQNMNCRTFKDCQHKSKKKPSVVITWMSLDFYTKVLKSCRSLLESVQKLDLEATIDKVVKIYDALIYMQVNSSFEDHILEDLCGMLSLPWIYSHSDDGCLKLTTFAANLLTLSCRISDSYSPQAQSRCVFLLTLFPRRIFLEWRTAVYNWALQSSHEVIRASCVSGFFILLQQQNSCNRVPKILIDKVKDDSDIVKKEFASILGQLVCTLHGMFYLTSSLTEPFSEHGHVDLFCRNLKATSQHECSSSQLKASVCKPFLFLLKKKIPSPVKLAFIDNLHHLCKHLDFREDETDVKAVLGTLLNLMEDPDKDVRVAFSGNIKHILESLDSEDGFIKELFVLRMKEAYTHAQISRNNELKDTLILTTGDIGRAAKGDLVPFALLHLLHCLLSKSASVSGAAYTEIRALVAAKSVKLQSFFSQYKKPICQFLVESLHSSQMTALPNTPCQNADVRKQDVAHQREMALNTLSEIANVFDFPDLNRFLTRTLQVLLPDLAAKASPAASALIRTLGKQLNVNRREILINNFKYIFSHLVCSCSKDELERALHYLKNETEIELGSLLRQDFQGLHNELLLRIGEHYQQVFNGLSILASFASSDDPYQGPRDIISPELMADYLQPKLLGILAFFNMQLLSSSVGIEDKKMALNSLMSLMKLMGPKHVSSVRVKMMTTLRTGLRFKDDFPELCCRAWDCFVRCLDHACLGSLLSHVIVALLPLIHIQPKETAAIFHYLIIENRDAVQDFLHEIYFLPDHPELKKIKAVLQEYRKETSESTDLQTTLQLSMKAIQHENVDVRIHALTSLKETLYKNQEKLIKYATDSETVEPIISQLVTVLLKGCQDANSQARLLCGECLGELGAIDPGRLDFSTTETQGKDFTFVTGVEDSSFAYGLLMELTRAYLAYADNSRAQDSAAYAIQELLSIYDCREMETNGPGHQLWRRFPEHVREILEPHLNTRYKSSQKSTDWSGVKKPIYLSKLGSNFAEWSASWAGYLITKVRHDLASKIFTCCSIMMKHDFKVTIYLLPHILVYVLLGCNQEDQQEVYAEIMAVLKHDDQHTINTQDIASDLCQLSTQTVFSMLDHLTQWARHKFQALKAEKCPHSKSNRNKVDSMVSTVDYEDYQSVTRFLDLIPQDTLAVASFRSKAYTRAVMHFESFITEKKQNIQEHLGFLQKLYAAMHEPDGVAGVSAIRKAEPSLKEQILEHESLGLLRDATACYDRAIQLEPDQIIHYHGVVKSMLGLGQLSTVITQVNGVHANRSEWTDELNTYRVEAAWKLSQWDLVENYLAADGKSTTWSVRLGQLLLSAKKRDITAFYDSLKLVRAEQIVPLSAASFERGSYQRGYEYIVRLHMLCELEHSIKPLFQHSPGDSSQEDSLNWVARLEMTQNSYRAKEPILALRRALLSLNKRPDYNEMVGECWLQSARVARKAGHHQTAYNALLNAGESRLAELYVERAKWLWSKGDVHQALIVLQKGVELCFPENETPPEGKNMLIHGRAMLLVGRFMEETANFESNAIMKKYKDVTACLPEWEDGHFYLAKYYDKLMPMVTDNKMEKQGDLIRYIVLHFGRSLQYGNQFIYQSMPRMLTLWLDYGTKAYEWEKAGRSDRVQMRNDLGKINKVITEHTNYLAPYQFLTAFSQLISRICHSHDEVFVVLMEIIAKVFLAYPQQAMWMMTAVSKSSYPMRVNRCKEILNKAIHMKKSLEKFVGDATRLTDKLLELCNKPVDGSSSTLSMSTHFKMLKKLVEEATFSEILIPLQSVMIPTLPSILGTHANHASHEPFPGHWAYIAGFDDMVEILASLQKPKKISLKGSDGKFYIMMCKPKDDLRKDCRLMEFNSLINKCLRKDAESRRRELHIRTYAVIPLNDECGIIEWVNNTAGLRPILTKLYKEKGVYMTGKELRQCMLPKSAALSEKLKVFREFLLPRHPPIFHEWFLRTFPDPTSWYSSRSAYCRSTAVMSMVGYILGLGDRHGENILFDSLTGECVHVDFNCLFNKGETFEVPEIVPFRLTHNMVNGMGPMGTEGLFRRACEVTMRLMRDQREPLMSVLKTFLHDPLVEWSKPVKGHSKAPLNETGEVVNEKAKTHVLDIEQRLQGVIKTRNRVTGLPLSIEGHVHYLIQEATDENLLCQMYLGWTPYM

For the compound `Cc1ccsc1-c1nnc(-c2nc(-c3ccc(S(=O)(=O)CCN(C)C)cc3)cnc2N)o1` [IA-269, 5-[4-(2-dimethylaminoethylsulfonyl)phenyl]-3-[5-(3-methyl-2-thienyl)-1,3,4-oxadiazol-2-yl]pyrazin-2-amine], the Ki is at most 10 nM. With `CN(C)C(=O)c1ccc(-c2cnc(N)c(-c3nnc(N4CCOCC4)o3)n2)cc1` [IA-45], the Ki fell in the range of 100 to 5000 nM. With `Nc1ncc(-c2ccc(CO)cc2)nc1C(=O)Nc1ccccc1` [Compound I-16, 3-amino-6-(4-(hydroxymethyl)phenyl)-N-phenylpyrazine-2-carboxamide] the figure was 100 to 5000 nM; with `CC(=O)c1cccc(-c2cnc(N)c(C(=O)Nc3ccccc3)n2)c1` [Compound I-22, 6-(3-acetylphenyl)-3-amino-N-phenylpyrazine-2-carboxamide], 10 to 100 nM; with `CC(C)c1ccccc1-c1cnc(N)c(-c2nnc(-c3ccccc3)o2)n1` [IA-56], 100 to 5000 nM. The result for `CS(=O)(=O)c1ccc(-c2cnc(N)c(C(=O)Nc3ccccn3)n2)cc1` [VII-6] reads 10 to 100 nM; that for `Nc1ncc(-c2ccccc2F)nc1C(=O)Nc1ccccc1` [Compound I-14, 3-amino-6-(2-fluorophenyl)-N-phenylpyrazine-2-carboxamide], 100 to 5000 nM. On to `CNCc1ccc(-c2cc(-c3nc(-c4ccc(S(=O)(=O)C(C)C)cc4)cnc3N)on2)c(F)c1` [IIA-14, 3-[3-[2-fluoro-4-(methylaminomethyl)phenyl]isoxazol-5-yl]-5-(4-isopropylsulfonylphenyl)pyrazin-2-amine], for which the Ki is at most 10 nM. With `CS(=O)(=O)c1ccc(-c2cnc(N)c(-c3nc4ccc(C#N)cc4[nH]3)n2)cc1` [Compound I-111, 2-(3-amino-6-(4-(methylsulfonyl)phenyl)pyrazin-2-yl)-1H-benzo[d]imidazole-6-carbonitrile] the figure was 10 to 100 nM; with `CC(C)S(=O)(=O)c1ccc(-c2cnc(N)c(-c3nnc(-c4ccccc4)o3)n2)cc1` [IA-116, 5-(4-isopropylsulfonylphenyl)-3-(5-phenyl-1,3,4-oxadiazol-2-yl)pyrazin-2-amine], at most 10 nM; with `CS(=O)(=O)c1ccc(-c2cnc(N)c(C(=O)Nc3ccc4cc[nH]c4n3)n2)cc1` [Compound V-12], at most 10 nM. `CC(C)S(=O)(=O)c1ccc(-c2cnc(N)c(-c3nnc(CCCCN)o3)n2)cc1` [IA-92, 3-[5-(4-aminobutyl)-1,3,4-oxadiazol-2-yl]-5-(4-isopropylsulfonylphenyl) pyrazin-2-amine]: the Ki was in the range of 100 to 5000 nM. The result for `CS(=O)(=O)c1ccc(-c2cnc(N)c(-c3nc4cccc(O)c4[nH]3)n2)cc1` [Compound I-109, 2-(3-amino-6-(4-(methylsulfonyl)phenyl)pyrazin-2-yl)-1H-benzo[d]imidazol-7-ol] reads at most 10 nM. With `COc1ccccc1NC(=O)c1nc(-c2cccc(C(N)=O)c2)cnc1N` [Compound I-27, 3-amino-6-(3-carbamoylphenyl)-N-(2-methoxyphenyl)pyrazine-2-carboxamide] the figure was 10 to 100 nM; with `CN1CCC(NC(=O)c2cccc(-c3cnc(N)c(C(=O)Nc4ccccc4)n3)c2)CC1` [Compound I-48, 3-amino-6-(3-(1-methylpiperidin-4-ylcarbamoyl)phenyl)-N-phenylpyrazine-2-carboxamide], 100 to 5000 nM; with `Nc1ncc(-c2cccc(C(=O)NCCN3CCCCC3)c2)nc1C(=O)Nc1ccccc1` [Compound I-61, 3-amino-N-phenyl-6-(3-(2-(piperidin-1-yl)ethylcarbamoyl)phenyl) pyrazine-2-carboxamide], 100 to 5000 nM. With `COc1ccccc1Nc1nnc(-c2nc(-c3ccc(C(=O)N(C)C)cc3)cnc2N)o1` [IA-103, 4-[5-amino-6-[5-(2-methoxyanilino)-1,3,4-oxadiazol-2-yl]pyrazin-2-yl]-N,N-dimethyl-benzamide] the figure was 10 to 100 nM; with `Nc1ncc(-c2cccc(O)c2)nc1-c1nc2ccccc2[nH]1` [Compound I-126, 3-(5-amino-6-(1H-benzo[d]imidazol-2-yl)pyrazin-2-yl)phenol], 100 to 5000 nM.
